Test results reported in article PMC8621605, “Cascade Transformations of 1-R-Ethynyl-9,10-anthraquinones with Amidines: Expanding Access to Isoaporphinoid Alkaloids” (Molecules, 2021).
Where “and” joins values, the source holds several entries; their conditions need not be identical. Equal entries are not always repeated. Where two headings read alike, the source gives them in different places.

What was measured:
[1] = test system: Concanavalin A-Induced Inflammation; test: Concanavalin A-induced mouse paw edema model; assay type: in vivo, C57BL/6 female mice; details: for anti-inflammatory effect (in words): 20 mg/kg i.p.; for inhibition in vivo at 20 mg/kg: Mus musculus, ip, anti-inflammatory activity relative to control group, read-out: Concanavalin A-Induced Inflammation AIA, %; for inhibition in vivo at 20 mg/kg / Concanavalin A-Induced Inflammation IEI, %: 20 mg/kg i.p. twice; for Concanavalin A-Induced Inflammation IEI, %: inflammatory edema index, 24 h and 1 h before phlogogen, mean ± SEM; for activity higher than that of indomethacin (reference drug): 20 mg/kg double i.p. administration
Description: (§1) The anti-inflammatory activity of the synthesized compounds was investigated in vivo in comparison with indomethacin on two models of local inflammation induced by histamine or concanavalin A injection. The last one was used as the inductor of allergic-like inflammation, owing to its immunogenic activity. The results were expressed as values of inflammatory edema indexes (IEI) and percentages of anti-inflammatory activity (AIA) relative to the control group (Table 1).
(§2) The pharmacological studies were carried out on outbred albino male mice and C57BL/6 female mice weighing 20–25 g with eight animals in each group. The anti-inflammatory activity of compounds 2–3 was evaluated in the histamine-induced and concanavalin A-induced mouse paw edema models. The test compounds were dissolved in saline containing 0.5% Tween 80 just before intraperitoneal administration at the dose of 20 mg/kg. The reference agent indomethacin (‘Fluka BioChemica’) was administered by the same method and dose. The control group of animals received an equivalent volume of water–Tween mixture.
The 8 female mice C57Bl/6 were subplantar injected into the hind paw with 0.02 mL 0.5% concanavaline A (“Sigma Aldrich”) aqueous solution. The test compounds were administered twice 24 h and 1 h before phlogogen. The animals were sacrificed by cervical dislocation 1 h after the phlogogen injection.
(§3) Both hind paws were cut off at the ankle joint and weighed. The ratio of the difference in weight between the treated and untreated hind paws to the weight of the untreated hind paw was used as an inflammatory edema index (IEI). The relative percentage of IEI versus control IEI (100%) was calculated for each test group. The anti-inflammatory activity (AIA) was presented as a difference between 100% in the control group and relative percentage of IEI in the test group.

U-87 MG = test: MTT cytotoxicity assay, glioblastoma; assay type: cell-based, human; details: for IC50: Homo sapiens, U-87 MG, 72 h, read-out: IC50 ± SEM, U-87 MG
Experimental: (§4) The cytotoxicity study of the quinolinones 2–3 was evaluated in vitro by MTT assay on immortalized humane fibroblasts (hTERT), humane breast cancer cell line (MCF7) and humane glioblastoma cell line (U-87MG and) versus doxorubicin as a reference compound.
(§5) Cell lines were obtained from the American Type Culture Collection: U-87 MG (ATCC number HBT-14), MCF7 (ATCC number HTB-22), A549 (ATCC number CRM-CCL), HeLa (ATCC number CCL-2). Immortalized human fibroblasts hTERT (as noncancerous control) were obtained from ICG SB RAS (Novosibirsk, Russia). DMEM with 10% fetal bovine serum (Gibco, Amarillo, TX, USA) was used for culturing. Optical density was measured on a Multiskan RC spectrophotometer (LabSystems, Vantaa, Finland). The MTT test was carried out according to the standard procedure using the reagent 3-(4,5-dimethylthiazol-2-yl)-2,5-diphen-yltetrazolium bromide (MTT, Sigma). Cells were seeded in 96 well plates at 5000 cells/well and incubated for 24 h at 37 C in 5% CO2. After 24 h, various concentrations of test compounds ([…]) in DMSO were added and the cells were incubated for an additional 72 h. The viability for DMSO (negative control) was calculated as 100%. All culture experiments were carried out independently three times with two repeats in the experiment, and the final result is presented as concentration, which causes 50% inhibition of cell population growth (IC50 ± SEM).

[2] = test system: Histamine-Induced Inflammation; test: Histamine-induced mouse paw edema model; assay type: in vivo, outbred albino male mice; details: for anti-inflammatory effect (in words) / inhibition in vivo at 20 mg/kg: 20 mg/kg i.p.; for inhibition in vivo at 20 mg/kg: Mus musculus, ip, anti-inflammatory activity relative to control group, read-out: Histamine-Induced Inflammation AIA, %; for Histamine-Induced Inflammation IEI, %: inflammatory edema index, 20 mg/kg i.p. 1 h before histamine, mean ± SEM
Description: as §1, §2
The 8 outbred male albino mice were subplantar injected into the hind paw with 0.05 mL 0.01% histamine (“Sigma Aldrich”, Saint Louis, MO, USA) in water solution. The tested compounds were administered 1 h before the histamine injection. The animals were sacrificed by cervical dislocation 5 h after the phlogogen injection.
as §3

A549 = test: MTT cytotoxicity assay, A549; assay type: cell-based; details: Homo sapiens, 72 h, read-out: IC50 ± SEM, A549
Experimental: as §5

MCF7 = test: MTT cytotoxicity assay, breast cancer; assay type: cell-based, human; details: for IC50: Homo sapiens, MCF7, 72 h, read-out: IC50 ± SEM, MCF7
Experimental: as §4, §5

hTERT = test: MTT cytotoxicity assay, immortalized fibroblasts; assay type: cell-based, human; details: for IC50: Homo sapiens, Fibroblast, 72 h, read-out: IC50 ± SEM, hTERT
Experimental: as §4, §5

HeLa = test: MTT cytotoxicity assay, cervical cancer; assay type: cell-based; details: for IC50: 72 h, MTT, read-out: IC50 ± SEM, HeLa; for cytotoxicity lower than doxorubicin: ratio of IC50
Experimental: as §5

Structure (SMILES) | anti-inflammatory effect (in words) [1] | inhibition in vivo at 20 mg/kg [1] [%] | Concanavalin A-Induced Inflammation IEI, % [1] [%] | IC50 (U-87 MG) [µM] | anti-inflammatory effect (in words) [2] | inhibition in vivo at 20 mg/kg [2] [%] | Histamine-Induced Inflammation IEI, % [2] [%] | IC50 (A549) [µM] | IC50 (MCF7) [µM] | melting point [°C] | IC50 (hTERT) [µM] | IC50 (HeLa; Homo sapiens, HeLa) [µM] | activity higher than that of indomethacin (reference drug) [1] | cytotoxic effect on immortal fibroblasts (in words) (hTERT) | cytotoxicity lower than doxorubicin (HeLa; HeLa) [times] | antitumor effect on multiform glioblastoma cell culture (in words) (U-87 MG) | antitumor effect on breast cancer cell culture (in words) (MCF7) | IC50 (HeLa) [µM]
CC(=O)c1ccc(C(=O)c2c(-c3ccccc3)nc3c4c(cccc24)C(=O)c2ccccc2-3)cc1 [2b, 2-benzo-3-(p-acetylbenzoyl)-7H-dibenzo[de,h]quinolin-7-one] | most potent effects | 43 | 21.4 ± 1.6 | > 100 | most potent effects | 33 | 23.0 ± 1.9 | > 100 | > 100 | 312 to 313 | > 100 | > 100 | – | – | – | – | – | –
COc1ccc(C(=O)c2c(-c3ccccc3)nc3c4c(cccc24)C(=O)c2ccccc2-3)cc1 [2d, 2-benzo-3-(p-methoxybenzoyl)-7H-dibenzo[de,h]quinolin-7-one] | most potent effects | 26 | 27.9 ± 1.2 | > 100 | most potent effects | 34 | 22.7 ± 2.3 | > 100 | > 100 | 279 to 280 | > 100 | > 100 | – | – | – | – | – | –
O=C1c2ccccc2-c2nc(-c3ccccc3)cc3cccc1c23 [3a, 2-phenyl-7H-dibenzo[de,h]quinolin-7-one] | – | 53 | 17.8 ± 1.8 | > 100 | most potent effect | 60 | 13.9 ± 0.8 | > 100 | > 100 | 207 to 208 | > 100 | 86.3 ± 12.9 | 1.3–1.4 times | did not have a cytotoxic effect | 14 | – | – | –
CC(=O)c1ccc(-c2cc3cccc4c3c(n2)-c2ccccc2C4=O)cc1 [3b, 2-(p-acetylphenyl)-7H-dibenzo[de,h]quinolin-7one] | most potent effects | 52 | 18.0 ± 2.0 | > 100 | most potent effects | 36 | 22.1 ± 1.8 | > 100 | > 100 | 324 to 325 | > 100 | > 100 | – | – | – | – | – | –
O=C1c2ccccc2-c2nc(-c3ccc([N+](=O)[O-])cc3)cc3cccc1c23 [3c, 2-(p-nitrophenyl)-7H-dibenzo[de,h]quinolin-7-one] | – | – | – | – | – | – | – | – | – | 295 to 296 | – | – | – | – | – | – | – | –
COc1ccc(-c2cc3cccc4c3c(n2)-c2ccccc2C4=O)cc1 [3d, 2-(p-methoxyphenyl)-7H-dibenzo[de,h]quinolin-7-one] | – | 60 | 15.2 ± 1.6 | > 100 | – | 42 | 19.9 ± 2.6 | > 100 | > 100 | 203 to 204 | > 100 | > 100 | 1.5 times and 1.3–1.4 times | – | – | – | – | –
CCCCCc1cc2cccc3c2c(n1)-c1ccccc1C3=O [3h] | – | 48 | 19.7 ± 2.3 | > 100 | – | 30 | 23.9 ± 1.7 | > 100 | > 100 | – | > 100 | > 100 | 1.3–1.4 times | – | – | – | – | –
CN(C)c1ccc(-c2cc3cccc4c3c(n2)-c2ccccc2C4=O)cc1 [3i] | most potent effects | 51 | 18.5 ± 1.6 | > 100 | most potent effects | 34 | 22.6 ± 2.3 | > 100 | > 100 | – | > 100 | > 100 | 1.3–1.4 times | – | – | – | – | –
CC(C)(O)c1cc2cccc3c2c(n1)-c1ccccc1C3=O [3j] | – | 41 | 22.1 ± 2.5 | 50.1 ± 5.9 | – | 16 | 28.9 ± 2.0 | > 100 | 92.9 ± 7.2 | – | > 100 | 21.3 ± 5.9 | – | did not have a cytotoxic effect | 3.5 | weak antitumor effect | weak antitumor effect | –
Cc1c(-c2cc3cccc4c3c(n2)-c2ccccc2C4=O)cnn1C [3k] | – | 18 | 31.1 ± 2.4 | > 100 | – | 34 | 22.7 ± 1.7 | > 100 | > 100 | – | > 100 | 21.3 | – | did not have a cytotoxic effect | 3.5 | – | – | 22.7 ± 7.3
COc1ccc(C(=O)c2c(C)nc3c4c(cccc24)C(=O)c2ccccc2-3)cc1 [4d, 2-methyl-3-(p-methoxybenzoyl)-7H-dibenzo[de,h]quinolin-7-one] | – | – | – | – | – | – | – | – | – | 232.5 to 233.5 | – | – | – | – | – | – | – | –
COc1cccc2c1C(=O)c1c(O)c3c(c(O)c1C2=O)C[C@@](O)(C(=O)CO)C[C@@H]3O[C@H]1C[C@H](N)[C@H](O)[C@H](C)O1 [Doxorubicin, doxorubicin, reference compound] | – | – | – | 2.3 ± 0.6 | – | – | – | 4.05 ± 0.9 | 3.6 ± 0.4 | – | 4.1 ± 1 | 6 ± 1 | – | – | – | – | – | –
COc1ccc2c(c1)c(CC(=O)O)c(C)n2C(=O)c1ccc(Cl)cc1 [Indomethacin, indomethacin, reference compound] | – | 38 | 23.4 ± 2.2 | – | – | 48 | 17.8 ± 2.7 | – | – | – | – | – | – | – | – | – | – | –
